Assay results published in patent publication US20230365624A1, “NOVEL ANGIOTENSIN I-CONVERTING ENZYME (ACE) INHIBITORY PEPTIDES” (Thai Union Group Public Company Limited, priority 2020, published 2023).
Marks after values point to notes of the source that are not given here. No end group written: not given here.

Key:
[1] = target: angiotensin I-converting enzyme (ACE) (Homo sapiens, UniProt P12821); experiment: ACE inhibitory activity assay (HHL substrate, hippuric acid absorbance at 228 nm); format: biochemical; details: for inhibition at 1000 µg/mL: synthetic peptides at 1 mg/ml
Procedure: ACE inhibitory activity assay was carried out according to the methods of Cushman and Cheung (1971) and Wu et al. (2002) with some modifications. A reaction mixture containing 50 µl of hydrolysate or peptides, 150 µl of 8.3 mM Hippuryl-L-histidyl-L-leucine (HHL), and 50 µl of ACE (25 mU/ml) was incubated at 37° C. for 1 h. Subsequently, 250 µl of 1 M HCl was added to terminate the reaction. The released hippuric acid (HA) was extracted by adding 2.5 ml ethyl acetate, and the mixture was mixed with a vortex for 1 min and left at room temperature for 1 h. Then, 2 ml of the upper layer was transferred into beaker and dried at 80° C. to remove ethyl acetate. Finally, 1 ml of deionized water was added to dissolve the HA. Absorbance was measured at 228 nm. The percentage of ACE inhibition was calculated as follows: […]
where A is the absorbance at 228 nm of a reaction containing ACE without hydrolysate; B is the absorbance at 228 nm of a reaction containing ACE previously inactivated by adding HCl in the absence of hydrolysate; C is the absorbance at 228 nm of a reaction in the presence of ACE and hydrolysate; and D is the absorbance at 228 nm of a reaction containing ACE previously inactivated by adding HCl in the presence of hydrolysate. The IC50 was defined as the concentration of inhibitor required to inhibit 50% of the ACE activity. Specific inhibitory activity was calculated as ACE inhibition (%) divided by total peptide content (mg).

[2] = target: ACE (Homo sapiens, UniProt P12821); details: Wu et al. (2008); Balti et al. (2010); read-out: IC50 (ACE inhibition); cited from earlier work
[3] = tested on: GI enzymes (pepsin and pancreatin); experiment: In vitro gastrointestinal (GI) digestion of synthetic peptides, with ACE inhibitory activity and α-amino group content before and after; format: in vitro ADME; details: pepsin pH 2.0, 37° C., 1 h, then pancreatin pH 7.5, 37° C., 2 h (FIG. 6)
Procedure: It is necessary for ACE inhibitory peptides to retain its activity in GI tract so that it can be absorbed into the bloodstream, where the peptide inhibitors can show their hypotensive effect. In vitro gastrointestinal digestion provides an easy process to imitate antihypertensive activity of peptides under oral administration. […] In vitro GI digestion was simulated according to the method of Zhu et al. (2008) with some modifications. One milligram of each sample was dissolved in 0.5 ml of 0.1 M KCl-HCl, and the pH was adjusted to 2.0 with 6 M HCl. Pepsin (1% enzyme/substrate, w/w) was added, and the mixture was incubated in a shaking water bath at 37° C. for 1 h, and the pH was then adjusted to pH 7.5. […] ACE inhibitory activity and α-amino groups content of the peptides before and after in vitro GI digestion were measured. […]
ACE inhibitory activity assay was carried out according to the methods of Cushman and Cheung (1971) and Wu et al. (2002) with some modifications. […] Absorbance was measured at 228 nm. The percentage of ACE inhibition was calculated as follows: […]
Content of α-amino groups was performed according to Adler-Nissen (1979). […] The mixture was left at room temperature for 30 min before an absorbance at 420 nm was monitored. […] The content of α-amino groups was expressed as leucine equivalents.

[4] = synthesized in silico GI digestion products of VR9

Sequence of angiotensin I-converting enzyme (ACE) (P12821 30-1306, species assumed): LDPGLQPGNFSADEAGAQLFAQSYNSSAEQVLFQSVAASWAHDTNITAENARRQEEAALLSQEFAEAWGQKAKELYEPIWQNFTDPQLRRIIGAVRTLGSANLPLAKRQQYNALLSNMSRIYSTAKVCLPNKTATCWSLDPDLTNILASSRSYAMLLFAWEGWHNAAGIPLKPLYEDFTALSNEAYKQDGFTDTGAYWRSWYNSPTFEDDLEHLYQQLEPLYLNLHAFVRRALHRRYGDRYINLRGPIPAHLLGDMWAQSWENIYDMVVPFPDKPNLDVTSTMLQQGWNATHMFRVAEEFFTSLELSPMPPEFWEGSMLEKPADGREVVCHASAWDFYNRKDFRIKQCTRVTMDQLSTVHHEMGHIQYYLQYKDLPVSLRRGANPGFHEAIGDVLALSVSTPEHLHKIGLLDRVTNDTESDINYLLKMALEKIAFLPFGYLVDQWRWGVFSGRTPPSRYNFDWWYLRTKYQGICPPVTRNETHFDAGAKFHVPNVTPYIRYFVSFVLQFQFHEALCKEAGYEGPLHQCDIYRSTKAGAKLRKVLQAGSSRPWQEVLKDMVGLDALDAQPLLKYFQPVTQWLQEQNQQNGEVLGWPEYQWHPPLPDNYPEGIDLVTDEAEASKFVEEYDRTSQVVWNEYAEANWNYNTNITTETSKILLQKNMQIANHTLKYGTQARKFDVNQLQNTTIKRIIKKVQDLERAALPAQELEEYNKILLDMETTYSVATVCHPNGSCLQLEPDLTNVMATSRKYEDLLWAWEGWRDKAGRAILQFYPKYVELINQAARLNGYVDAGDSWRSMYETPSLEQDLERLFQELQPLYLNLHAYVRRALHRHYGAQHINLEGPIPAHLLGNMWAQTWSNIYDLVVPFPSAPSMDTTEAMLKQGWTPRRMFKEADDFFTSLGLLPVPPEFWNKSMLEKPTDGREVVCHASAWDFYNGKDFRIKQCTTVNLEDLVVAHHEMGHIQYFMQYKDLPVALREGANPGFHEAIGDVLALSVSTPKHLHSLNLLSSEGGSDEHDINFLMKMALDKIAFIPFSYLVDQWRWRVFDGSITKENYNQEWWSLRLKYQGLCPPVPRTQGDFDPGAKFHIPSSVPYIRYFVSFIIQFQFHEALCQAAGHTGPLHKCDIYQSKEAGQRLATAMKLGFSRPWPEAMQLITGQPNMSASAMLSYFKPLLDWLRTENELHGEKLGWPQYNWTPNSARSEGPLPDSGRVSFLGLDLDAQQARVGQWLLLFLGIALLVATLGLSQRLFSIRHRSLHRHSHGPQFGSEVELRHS
Sequence of ACE (P12821 30-1306, species assumed): as above

INCR
ACE inhibitory activity (%) At 1 µg/ml ([1]; 1 µg/ml, synthesized in silico GI digestion products of VR9): 29.10 ± 1.06^c % | ACE inhibitory activity (%) At 1 mg/ml [1, 4]: 100.79 ± 0.71^c %

MAW
IC50 [2]: 16300 nM

NLLPHR [NLLPHR]
Decrease of ACE inhibitory activity after GI digestion [3]: approximately 30% | IC50 [1]: 1240 nM | inhibition at 1000 µg/mL [1]: 94.9 ± 0.97%

VIIF
IC50 [2]: 8700 nM

VIY [in silico GI digestion product of VR9]
ACE inhibitory activity (%) At 1 mg/ml [1, 4]: 18.51 ± 1.12^a %

VIYSRINCR [VIYSRINCR]
Decrease of ACE inhibitory activity after GI digestion [3]: ~14% | IC50 [1]: 240 nM | inhibition at 1000 µg/mL [1]: 97.02 ± 0.46%

VSVVQYSR [VSVVQYSR]
IC50 [1]: 950 nM | inhibition at 1000 µg/mL [1]: 94.15 ± 0.2%

VYAP
IC50 [2]: 6100 nM
